Some test systems named below: A498; ACHN; CCRF-CEM; HCT-116; HCT-15; HOP-92; IGROV-1; LOX IMVI; MDA-MB-435; MOLT-4; NCI-H460; NCI-H522; OVCAR-3; SF-268; SF-539; SK-MEL-28; SK-MEL-5; SK-OV-3; SW-620; U-251.
Common to all, as to assay: NCI anticancer screen, dose series, 48 h

The text below walks through data of ChEMBL document CHEMBL1201862, “PubChem BioAssay data set” (2004).

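Assay format: 96-well plates, 48-hour exposure. The concentration for 50% growth inhibition is given as GI50.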 Activity calls are given as the source filed them. Rule as the data show it: active = GI50 up to about 1.1 µM and inactive = higher.

Consider `COc1ccc(/C=C2/C(C)=NN(c3cccc(Cl)c3)/C2=N/c2nc3ccccc3s2)cc1`, for which the GI50 was 23.1 µM (inactive) in the test with A498; 20.6 µM (inactive) in the test with ACHN; 25.3 µM (inactive) in the test with CCRF-CEM; 19.2 µM (inactive) in the test with HCT-116; 17.5 µM with HCT-15; 20.9 µM (inactive) in the test on HOP-92. Besides, the GI50 was 20.7 µM (inactive) with IGROV-1; 18 µM (inactive) in the test on LOX IMVI; 33.7 µM (inactive) in the test on MDA-MB-435; 24.9 µM (inactive) in the test on MOLT-4; 20.4 µM (inactive) with NCI-H460; 19.1 µM (inactive) in the test with NCI-H522. In addition, the GI50 in the test with OVCAR-3 was 20.2 µM (inactive); with SF-268, 25.6 µM (inactive); in the test on SF-539, 26.7 µM (inactive); in the test with SK-MEL-28, 20.6 µM (inactive); with SK-MEL-5, 16.6 µM (inactive); in the test on SK-OV-3 it was 24 µM (inactive). Moreover, the GI50 with SW-620 was 22.7 µM (inactive); with U-251 it was 20.7 µM (inactive).
